{
  "source": "patent US10894067B2",
  "about": "“Genome stability enhancer” (Yamada Bee Company, Inc., priority 2017, dated 2021)",
  "tested_on": "H2AX expression in MEF (mouse embryo fibroblast) cells",
  "experiment": "Western analysis of H2AX expression in MEF cells (Test Examples 1-3)",
  "type": "cell-based",
  "method": "MEF (mouse embryo fibroblast) cells were cultured at 37° C. in 5% CO2 by the 3T3 method in a 10% FCS (fetal calf serum)-containing DMEM medium to which a 25 μg/ml enzymatically treated RJ or non-treated RJ was added. The cells that were cultured for 0, 3, 6, 12, and 24 hours were harvested, and Western analysis was performed using a H2AX antibody (Bethyl Laboratories, Inc.) and a β-actin antibody (AC-74, Sigma-Aldrich Co. LLC.).\nIn the same manner as in Test Example 1, the effects of melinjo and trans-resveratrol on H2AX expression were analyzed. In this test example, a 0.26, 0.52, 1.0, or 2.1 w/v % melinjo seed extract or trans-resveratrol was added to a medium, and cells were cultured for 1 hour and harvested.",
  "data": [
    {"smiles": "Oc1ccc(/C=C/c2cc(O)cc(O)c2)cc1", "note": "[trans-resveratrol]", "values": [
      {"measurement": "Induced transient H2AX expression", "setting": "Test Example 2, 0.26, 0.52, 1.0 or 2.1 w/v % in medium, cultured 1 hour, FIG. 2", "result": "Induced transient H2AX expression was observed"},
      {"measurement": "Induced transient H2AX expression", "setting": "Test Example 3, 2.5 μM (0.52 μg/ml) trans-resveratrol, 0.52 μg/ml melinjo seed extract, 2.5 μM gnetin C, 0-24 hours, FIG. 3", "result": "Induced transient H2AX expression was observed"}
    ]}
  ]
}
